The values below come from PubChem BioAssay (NCI).

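Protocol summary: plate cells (96-well), add compound at 5 concentrations, incubate 48 h, interpolate endpoints linearly. The concentration for 50% growth inhibition is given as GI50. At the TGI there is no net growth.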 Some results are limits rather than exact numbers.

Test systems include COLO 205 colon; HOP-62 NSCLC; HOP-92 NSCLC; NCI-H460 lung; OVCAR-3 ovarian; SK-MEL-2 melanoma; SK-MEL-5 melanoma; SN12C renal; SNB-19 CNS; PC-3 prostate.
Holding throughout (assay): NCI-60 cell line screen, 48 h

As for `NC(=O)OCC(COc1ccc(Cl)cc1)OC(=O)c1ccccc1Cl` (centres undefined), the TGI was 32.7 µM in the experiment with COLO 205 colon; 49.2 µM in the experiment on HOP-62 NSCLC; 45.1 µM in the experiment on HOP-92 NSCLC; 30.9 µM in the experiment with NCI-H460 lung; 40.7 µM with OVCAR-3 ovarian; 34.1 µM in the experiment with SK-MEL-2 melanoma. Besides, the TGI in the experiment with SK-MEL-5 melanoma turned out to be 33.1 µM; in the experiment with SN12C renal, 34 µM; in the experiment with SNB-19 CNS it was 97.7 µM.

Take `N#CC(C#N)=Cc1ccc(-c2ccc(-c3nc4ccccc4s3)cc2)o1`: the GI50 was 20.6 µM in the experiment on COLO 205 colon; 11.4 µM in the experiment with HOP-62 NSCLC; 30.1 µM with NCI-H460 lung; 66.9 µM with OVCAR-3 ovarian; 9.54 µM with PC-3 prostate; 63.2 µM in the experiment on SK-MEL-2 melanoma. Moreover, the GI50 in the experiment on SK-MEL-5 melanoma is 6.01 µM; in the experiment on SN12C renal it was 1.09 µM; in the experiment on SNB-19 CNS it was 30 µM. For the same molecule, the TGI in the experiment with COLO 205 colon is 55.3 µM; in the experiment on HOP-62 NSCLC, 44.2 µM; in the experiment on NCI-H460 lung, above 100 µM; with OVCAR-3 ovarian, above 100 µM; in the experiment with PC-3 prostate it was 22.5 µM; with SK-MEL-2 melanoma, above 100 µM. In addition, the TGI in the experiment on SK-MEL-5 melanoma was 76.2 µM; in the experiment on SN12C renal, 12.6 µM; in the experiment with SNB-19 CNS, 84.3 µM.

As to `COC(=O)[C@@H]1CSC(=S)N1C(=O)C[C@H]1CC=CC[C@H]1CC(=O)Sc1ccccc1`, the TGI in the experiment on COLO 205 colon was found to be 37.1 µM; in the experiment on HOP-62 NSCLC it was 38 µM; with NCI-H460 lung, 33.5 µM; with OVCAR-3 ovarian, 36.2 µM; in the experiment with SK-MEL-2 melanoma, 52 µM; in the experiment on SN12C renal, 30.4 µM. Also, in the experiment with SNB-19 CNS, the TGI amounted to 34.8 µM.

As for `CN1CCc2c1nc(-c1ccccc1)c1c2N(C)CC1`, the TGI with COLO 205 colon is above 100 µM; in the experiment on HOP-62 NSCLC it was above 100 µM; with HOP-92 NSCLC, 91 µM; with NCI-H460 lung it was above 100 µM; in the experiment on OVCAR-3 ovarian, above 100 µM; with SK-MEL-2 melanoma, above 100 µM. The TGI in the experiment with SK-MEL-5 melanoma, in the experiment on SN12C renal and in the experiment with SNB-19 CNS was above 100 µM each time.

For the molecule `NCC1(N2CCOCC2)C2CCCC21CO` (centres undefined), the TGI in the experiment on COLO 205 colon, in the experiment with HOP-62 NSCLC, in the experiment on HOP-92 NSCLC, with NCI-H460 lung, with OVCAR-3 ovarian and in the experiment with SK-MEL-2 melanoma was above 100 µM each time. Further, the TGI in the experiment on SK-MEL-5 melanoma, in the experiment with SN12C renal and with SNB-19 CNS was above 100 µM each time.

In the case of `CS(=O)(=O)CC1=Nc2nnc(CCCCCCCc3nnc4n3C(=O)C(CS(C)(=O)=O)=N4)n2C1=O`, the TGI in the experiment with COLO 205 colon, in the experiment with HOP-62 NSCLC, in the experiment with HOP-92 NSCLC, with NCI-H460 lung, in the experiment on OVCAR-3 ovarian and in the experiment with SK-MEL-5 melanoma was above 100 µM in each case. Besides, the TGI in the experiment with SN12C renal and with SNB-19 CNS was above 100 µM each time.

Regarding `CC(=O)[O][Pb]([O]C(C)=O)([c]1ccccc1)[c]1ccccc1`, the GI50 in the experiment with COLO 205 colon is 1.76 µM; in the experiment with HOP-62 NSCLC, 25.2 µM; in the experiment with HOP-92 NSCLC it was 3.62 µM; in the experiment with NCI-H460 lung, 7.51 µM; in the experiment with OVCAR-3 ovarian, 2.4 µM; in the experiment on SK-MEL-2 melanoma, 1.73 µM. Also, the GI50 with SK-MEL-5 melanoma is 2.91 µM; in the experiment on SN12C renal, 3.61 µM; with SNB-19 CNS, 23.8 µM. Further, the TGI in the experiment on COLO 205 colon is 15 µM; in the experiment with HOP-62 NSCLC, 52 µM; in the experiment with HOP-92 NSCLC, above 100 µM; with NCI-H460 lung, above 100 µM; in the experiment on OVCAR-3 ovarian, above 100 µM; in the experiment with SK-MEL-2 melanoma, 3.75 µM. Also, the figures for the TGI in the experiment on SK-MEL-5 melanoma, with SN12C renal and with SNB-19 CNS were 14 µM, above 100 µM and 46.6 µM, respectively.

On to `COC12C=CC(CC1)c1c(O)ccc(O)c12` (centres undefined), for which the TGI with COLO 205 colon was 57 µM; in the experiment with HOP-62 NSCLC, above 100 µM; in the experiment with NCI-H460 lung, above 100 µM; in the experiment with OVCAR-3 ovarian, 44.2 µM; in the experiment on SK-MEL-2 melanoma it was above 76.3 µM; with SK-MEL-5 melanoma it was above 100 µM. Besides, the TGI with SN12C renal and in the experiment on SNB-19 CNS was above 100 µM throughout.

In the case of `COC(=O)c1[nH]c(=S)[nH]c(=O)c1-c1ccc(Cl)cc1`, the TGI in the experiment on COLO 205 colon, in the experiment with HOP-62 NSCLC, with HOP-92 NSCLC, with NCI-H460 lung, with OVCAR-3 ovarian and in the experiment on SK-MEL-2 melanoma was above 50 µM throughout. Further, the TGI in the experiment on SK-MEL-5 melanoma, with SN12C renal and in the experiment on SNB-19 CNS was above 50 µM throughout.

In the case of `O=C(CCn1[nH]c(=O)c(Cl)c(Cl)c1=O)NOCCCc1ccccc1`, the TGI in the experiment with HOP-62 NSCLC, with HOP-92 NSCLC, in the experiment with NCI-H460 lung, in the experiment on OVCAR-3 ovarian, in the experiment on SK-MEL-2 melanoma and in the experiment with SK-MEL-5 melanoma was above 100 µM throughout. In addition, the TGI in the experiment on SN12C renal and in the experiment on SNB-19 CNS was above 100 µM in each case.

`COc1ccccc1[N-]C(C1=C([O-])c2ccccc2C1=O)c1ccccc1.COc1ccccc1[N-]C(C1=C([O-])c2ccccc2C1=O)c1ccccc1.[Cu+2]` (centres undefined): the GI50 in the experiment with COLO 205 colon is 3.95 µM; with HOP-62 NSCLC it was 25.2 µM; with HOP-92 NSCLC, 9.86 µM; with NCI-H460 lung, 6.76 µM; in the experiment on OVCAR-3 ovarian it was 13.8 µM; in the experiment with SK-MEL-5 melanoma, 5.39 µM. In addition, the GI50 is 9.37 µM in the experiment on SN12C renal and 23.8 µM with SNB-19 CNS. In addition, the TGI in the experiment with COLO 205 colon was 30 µM; in the experiment on HOP-62 NSCLC, 68.6 µM; in the experiment on HOP-92 NSCLC it was 69.7 µM; with NCI-H460 lung, above 100 µM; in the experiment on OVCAR-3 ovarian, 54.2 µM; with SK-MEL-5 melanoma it was 72.7 µM. The TGI in the experiment on SN12C renal was above 100 µM; with SNB-19 CNS, 81.8 µM.

Consider `O=C(CC1Sc2ccccc2NC1=O)Nc1cc(Cl)ccc1Cl` (centres undefined), for which the TGI in the experiment with HOP-92 NSCLC, with NCI-H460 lung, in the experiment on OVCAR-3 ovarian, with SK-MEL-2 melanoma, with SK-MEL-5 melanoma and with SN12C renal was above 100 µM throughout. In addition, the TGI in the experiment on SNB-19 CNS is above 100 µM.

In the case of `CC(=O)/C(=C\c1ccco1)C(=O)Nc1ccccc1`, the TGI with HOP-62 NSCLC, in the experiment on HOP-92 NSCLC, with NCI-H460 lung, in the experiment on OVCAR-3 ovarian, in the experiment with SK-MEL-2 melanoma and in the experiment on SK-MEL-5 melanoma was above 100 µM each time. Also, the TGI in the experiment on SN12C renal and with SNB-19 CNS was above 100 µM in each case.
